Where two headings read alike, the source gives them in different places.
How the values were obtained:
[1] = system: U‐251 MG cells; set-up: method as in He and colleagues (2021); conditions: after 2 days of treatment; ref He and colleagues (2021); read-out: cytotoxicity against U‐251 MG cells (IC50); cited from earlier work
[2] = system: U‐251 MG cells; assay: MTT cell viability assay, U‐251 MG glioblastoma cells, 5 days treatment; assay type: cell-based, human; conditions: 5 days treatment, 100–0 µM
Description: (§1) Dose–response curves for each of the pyrazolo[1,5‐α]pyrimidinones were performed to determine the cytotoxic effect of the compounds on a cancerous, U‐251 MG cell line and a noncancerous, HEK293 cell line. The synthesized pyrazolopyrimidinones were dissolved in DMSO (Merck) to obtain a stock solution which was stored at −20 °C. […] U‐251 MG and HEK293 cells were seeded at a density of 2 x 10^3 cells per well (100 μL) in a 96‐well plate (Sarstedt) and incubated for 24 h prior to each treatment to allow for cell adhesion. The stock solution was diluted in media to working concentrations of 100, 75, 50, 25, 10, 5, and 0.1 μM. Media on the seeded cells was then replaced with the working concentrations of the compound or the controls in a 96‐well plate (100 μL). The treated plate was incubated at 37 °C in the humidified incubator for 5 days. Cell viability was assessed after 5 days using the MTT assay. Dose–response curves were then plotted relative to the positive control whereby cells were treated 20% DMSO and a negative control whereby cells were maintained in fresh DMEM.
(§2) To determine the extent of the cytotoxic effect of the pyrazolopyrimidinone on each cell line, the cell viability at each working concentration was determined via the MTT assay (Merck). The working solution of MTT used was 5 mg MTT per 1 ml of PBS diluted in 9 ml of media. After 5 days of incubation, the treatment was removed from each of the wells and replaced with 100 μL of fresh MTT solution. The plate was then incubated for 3 h at 37 °C in a humidified incubator to allow the reduction of the yellow tetrazolium salt to purple formazan crystals. After the incubation, the MTT solution was removed from the wells and replaced with 100 μL of DMSO for 15 min to dissolve the formazan crystals. The absorbance was read at 570 nm using a spectrophotometric microplate reader (Thermo Fisher Scientific).
(§3) Each of the experiments was performed at least three independent times, with a minimum of six technical replicates per experiment. Statistical analysis was carried out using GraphPad Prism version 8.0.0 (GraphPad Softwares, Inc.). Curve fitting and the IC50 values were obtained through the dose–response curves using nonlinear regression. To determine if the dose–response curves were statistically distinct and not overlapping, extra sum‐of‐squares F‐test was used, and a p‐value was obtained. The effect of compound treatment on both cell lines was statistically compared via two‐way ANOVA with Tukey's post‐test. The CytExpert (Beckman Coulter) software was used for flow cytometry analysis. Graphs represent the % dead cells whereby the total number of dead cells was divided by the total cell population. The statistical significance of the flow cytometry results was determined via one‐way analysis of variance (ANOVA) with Dunnett's T3 multiple comparison post‐test. Data is presented as the mean ± standard error of mean (SEM). Summary of results from statistical analysis reports p‐values as follows: ≥0.05 (ns), 0.01–0.05 (*), 0.001–0.01 (**), […], and <0.0001(****).

[3] = system: HEK293 cells; assay: MTT cell viability assay, noncancerous HEK293 cells, 5 days treatment; assay type: cell-based, human; conditions: for IC50: 5 days treatment, 100–0 µM
Description: as §1, §2, §3

[4] = system: U‐251 MG and HEK293 cells; assay: Statistical comparison of dose–response in U‐251 MG versus HEK293 (selectivity, HIT criteria); assay type: cell-based, human; conditions: for Selectivity for cancer cells with IC50 < 50 [µM]‐Yes/No: HEK293 IC50 higher than U‐251 MG IC50, U‐251 MG IC50 below 50 µM; for All criteria met -Yes/No: HIT criteria and statistical testing, Table S1
[5] = system: U‐251 MG cells; assay: JC‐1 flow cytometry, mitochondrial membrane depolarization / apoptosis; assay type: cell-based, human; conditions: U‐251 MG, 5 days; for JC-1: significance of cell death, Neg Ctrl v HNT: highest non-toxic concentration; for JC-1: significance of cell death, Neg Ctrl v 50 µM: highest toxic concentration 50 µM
Description: JC‐1 dye forms aggregates in healthy mitochondria which changes the fluorescent property of the dye. […] Stock solutions of JC‐1 dye (Merck) were prepared at 1 mg/mL in DMSO and stored at −20 °C. U‐251 MG cells were seeded in 6‐well plates (Sarstedt) at a seeding density of 2 x 10^4 cells per well (1000μL) after which cells were treated with drug concentrations (highest toxic, IC50, nontoxic). After 5 days incubation, the compound and wash step with PBS was collected in falcon tubes. The cells were then harvested by trypsinization (500 μL), incubated for a period of 6 min, neutralized with media (1000 μL), and pelleted at 1200rpm for 5 min. A JC‐1 working solution of 2 μg/mL was made up in DMEM and was light protected. The cell pellet was resuspended and stained with 2 μg/mL JC‐1 dye and incubated and protected from the light for a period of 10 min. Cells were then centrifuged at 1200rpm for 5 min. The supernatant was removed, and cells were washed with 1 mL of sterile PBS. This was repeated twice. […] Cells were also treated using controls whereby the positive control used was DMEM and 20% DMSO and the negative control used was fresh media. The cells were then analyzed using flow cytometry (Beckmann Coulter, CytExpert version 2.4.0.28). Fluorescence was measured using FL1 (FITC) (530 nm) and FL2 (PE) (595 nm) channels with emission.
as §3

[6] = system: U‐251 MG cells; assay: Propidium iodide (PI) flow cytometry, cell membrane permeabilization; assay type: cell-based, human; conditions: 5 days; for PI: significance of cell death, Neg Ctrl v HNT: highest non-toxic concentration; for PI: significance of cell death, Neg Ctrl v 50 µM: highest toxic concentration 50 µM
Description: Propidium iodide (PI) is a DNA staining, cell membrane impermeable dye which was used to assess cell death via loss of membrane integrity and is used to indicate necrotic or late apoptotic cells. Stock solutions of PI dye (Merck, Ireland) were prepared at 10 μg/mL in PBS and stored at −20 °C. U‐251 MG cells were seeded in 96‐well plates at a seeding density of 2 x 10^3 cells per well (100 μL), as previously stated. […] Subsequently, the compound was collected in 15 ml falcon tubes. Cells were washed with PBS (100 μL), and the PBS was collected in corresponding tubes to ensure all cells are collected. The cells were collected using 0.25% trypsin‐EDTA (50 μL) with a 6‐min incubation and media neutralization (100 μL). Each tube was centrifuged at 1200rpm for 5 min to obtain a pellet. The supernatant was removed, and the pellet was resuspended in PBS and transferred to an Eppendorf tube. Ten microliters of PI stain (2.5 μg/ml) was added to the Eppendorf tubes, and the tubes were incubated for a period of 15 min. Cells were also treated using controls whereby the positive control used was DMEM and 20% DMSO and the negative control used was fresh media. The cells were then analyzed using flow cytometry (Beckmann Coulter, CytExpert version 2.4.0.28). Fluorescence was measured using the FL2 channel. PI was detected in the red channel which is R‐phycoerythrin (PE‐Cy5). PE was used in combination with fluorescein isothiocyanate (FITC) and is excited at a wavelength of 488 nm.
as §3

O=c1cc(-c2ccccc2)[nH]c2cc(-c3ccccc3)nn12 [Compound 15]
IC50 [1]: 77.7 µM | IC50 ([2]; Homo sapiens, U-251, 120 h): 19.9 µM | IC50 ([3]; Homo sapiens, HEK293, 120 h): 15.9 µM | Selectivity for cancer cells with IC50 < 50 [µM]‐Yes/No [4]: No | All criteria met -Yes/No [4]: No

O=c1cc(-c2cc(C(F)(F)F)cc(C(F)(F)F)c2)[nH]c2cc(-c3cccc(Br)c3)nn12 [Compound 21, 5‐(3,5‐Bis(trifluoromethyl)phenyl)‐2‐(3‐bromophenyl)pyrazolo[1,5‐α]pyrimidin‐7(4¬H)‐one]
JC-1: significance of cell death, Neg Ctrl v HNT [5]: *** (0.001 to 0.01(***)) | JC-1: significance of cell death, Neg Ctrl v 50 µM [5]: *** (0.001 to 0.01(***)) | cell membrane permeabilization‐dependent cell death (PI), in words [6]: significant cell membrane permeabilization‐dependent cell death | PI: significance of cell death, Neg Ctrl v HNT [6]: ns (≥0.05 (ns)) | PI: significance of cell death, Neg Ctrl v 50 µM [6]: **** (<0.0001(****)) | IC50 [2]: 0.71 µM | IC50 ([2]; Homo sapiens, U-251, 120 h): 0.714 µM | IC50 ([3]; Homo sapiens, HEK293, 120 h): 19 µM | Selectivity for cancer cells with IC50 < 50 [µM]‐Yes/No [4]: Yes | All criteria met -Yes/No [4]: Yes

O=c1cc(-c2cc(C(F)(F)F)cc(C(F)(F)F)c2)[nH]c2cc(-c3ccccc3Br)nn12 [Compound 22]
JC-1: significance of cell death, Neg Ctrl v HNT [5]: ns (≥0.05 (ns)) | JC-1: significance of cell death, Neg Ctrl v 50 µM [5]: * (0.01 to 0.05 (*)) | cell membrane permeabilization‐dependent cell death (PI), in words [6]: significant cell membrane permeabilization‐dependent cell death | PI: significance of cell death, Neg Ctrl v 50 µM [6]: **** (<0.0001(****)) | IC50 [2]: 2.79 µM | IC50 ([2]; Homo sapiens, U-251, 120 h): 2.79 µM | IC50 ([3]; Homo sapiens, HEK293, 120 h): 66.9 µM | Selectivity for cancer cells with IC50 < 50 [µM]‐Yes/No [4]: Yes | All criteria met -Yes/No [4]: Yes

O=c1cc(-c2cc(C(F)(F)F)cc(C(F)(F)F)c2)[nH]c2cc(-c3ccc(Br)cc3)nn12 [Compound 7]
JC-1: significance of cell death, Neg Ctrl v HNT [5]: ns (≥0.05 (ns)) | JC-1: significance of cell death, Neg Ctrl v 50 µM [5]: **** (<0.0001(****)) | cell membrane permeabilization‐dependent cell death (PI), in words [6]: significant cell membrane permeabilization‐dependent cell death | PI: significance of cell death, Neg Ctrl v HNT [6]: * (0.01 to 0.05 (*)) | IC50 [2]: 29.8 µM | IC50 ([2]; Homo sapiens, U-251, 120 h): < 50 µM | IC50 [3]: 60.9 µM | cytotoxicity / biological response in HEK293, in words ([3]; 5 days, up to 100 µM, threshold 50 µM): did not elicit any biological response | IC50 ([3]; Homo sapiens, HEK293, 120 h): > 50 µM | Selectivity for cancer cells with IC50 < 50 [µM]‐Yes/No [4]: Yes | All criteria met -Yes/No [4]: Yes
